# Laboratory results published in ChEMBL document CHEMBL1131031, “Indolequinone antitumor agents: reductive activation and elimination from (5-methoxy-1-methyl-4,7-dioxoindol-3-yl)methyl derivatives and hypoxia-selective cytotoxicity in vitro” (J Med Chem, 1998).
# Key:
# [1] = In vitro cytotoxicity against […] V79-379A cells determined by MTT assay in the presence of air; format: functional, cell-based; settings: Cricetulus griseus
# [2] = In vitro cytotoxicity against hypoxic V79-379A cells determined by MTT assay in the presence of nitrogen; format: functional, cell-based; settings: Cricetulus griseus
Structure (SMILES),IC50 [1] [µM],IC50 [2] [µM]
COC1=CC(=O)c2c(c(COC(N)=O)cn2C)C1=O,3,0.04
COC1=CC(=O)c2c(c(COC(=O)c3ccccc3F)c(C)n2C)C1=O,164,2
COC1=CC(=O)c2c(c(Cc3cc(F)ccc3O)c(C)n2C)C1=O,200,110
COC1=CC(=O)c2c(c(COC(=O)c3ccccc3)cn2C)C1=O,1.4,0.04
COC1=CC(=O)c2c(c(COC(=O)c3ccc(F)cc3)cn2C)C1=O,0.7,0.05
COC1=CC(=O)c2c(c(COC(=O)c3ccccc3F)cn2C)C1=O,0.5,0.04
COC1=CC(=O)c2c(c(COC(=O)c3ccccc3)c(C)n2C)C1=O,16,0.2
COC1=CC(=O)c2c(c(COC(N)=O)c(C)n2C)C1=O,25,0.3
COC1=CC(=O)c2c(c(COc3ccc(F)cc3)c(C)n2C)C1=O,31,0.85
COC1=CC(=O)c2c(c(CO)cn2C)C1=O,220,240
COC1=CC(=O)c2c(c(CO)c(C3CC3)n2C)C1=O,540,820
COC1=CC(=O)c2c(c(CO)c(C)n2C)C1=O,1080,285
COC1=CC(=O)c2c(c(Cc3ccc(O)c(F)c3)c(C)n2C)C1=O,470,280
CCOC(=S)SCc1c2c(n(C)c1C)C(=O)C=C(OC)C2=O,67,3
COC1=CC(=O)c2c(c(COC(=O)c3ccccc3)c(C3CC3)n2C)C1=O,198,1
COC1=CC(=O)c2c(c(COc3cccc(NC(C)=O)c3)c(C)n2C)C1=O,3.7,0.04
COC1=CC(=O)c2c(c(COC(C)=O)c(C)n2C)C1=O,27,2.5
COC1=CC(=O)c2c(c(COCc3ccccc3)c(C)n2C)C1=O,225,410
COC1=CC(=O)c2c(c(CCl)cn2C)C1=O,304,33
COC1=CC(=O)c2c(c(COC(=O)Cc3ccc(-c4ccccc4)cc3)c(C)n2C)C1=O,14.1,0.66
COC1=CC(=O)c2c(c(COc3c(Cl)cc(Cl)cc3Cl)cn2C)C1=O,0.7,0.08
COC1=CC(=O)c2c(c(COC(=O)c3ccc(F)cc3)c(C)n2C)C1=O,27,0.3
COC1=CC(=O)c2c(c(COc3ccccc3)c(C)n2C)C1=O,12,0.7
